This note sets out measurements from ChEMBL document CHEMBL1201862, “PubChem BioAssay data set” (2004).

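Exposure lasted 48 hours, with cells grown in 96-well plates and compounds tested at five concentrations. GI50 = concentration required for 50% inhibition of growth.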 The source made the active and inactive calls. Rule as the data show it: active = GI50 up to about 1.1 µM and inactive = higher. Some results are limits rather than exact numbers.

Common to all, as to assay: inhibition of tumour cell growth, NCI panel, 48 h
For test [1], the system named is COLO 205.
In test [2] the test system is SW-620.
In test [3] the test system is OVCAR-4.
Test [4] has as its system HCT-15.
Test [5] concerns CCRF-CEM.
Test [6] has as its system HOP-62.
Test [7] deals with PC-3.
Test [8] has as its system OVCAR-5.
Test [9] concerns UACC-257.
In test [10] the test system is IGROV-1.
The test system of test [11] is SF-295.
The subject of test [12] is SK-MEL-2.
Test [13] has as its system HOP-92.
In test [14] the test system is HCT-116.
Test [15] has as its system BT-549.
For test [16], the system named is Malme-3M.
The test system of test [17] is NCI-H23.
Test [18] has as its system MDA-MB-435.
Test [19] deals with LOX IMVI.

Consider `CCCCCCCCCOC(=O)c1cnc(Cl)cn1`, for which the GI50 in test [1] was 22.2 µM (inactive); in test [2] it was 17.3 µM (inactive); in test [3], 27.9 µM (inactive); in [4] it was 17.4 µM; in test [5] it was 39.9 µM (inactive); in test [6], 24 µM (inactive). For the same molecule, the GI50 is 6.18 µM (inactive) in test [7]; 29 µM (inactive) in [8]; 23.6 µM (inactive) in test [9]; 20.2 µM (inactive) in test [10]; 17.6 µM (inactive) in [11]; 22.1 µM (inactive) in test [12]. Besides, the GI50 was 42.4 µM (inactive) in [13]; 17.7 µM (inactive) in test [14]; 26.5 µM (inactive) in test [15]; 19.6 µM (inactive) in [16]; 18.2 µM (inactive) in test [17]; 19.9 µM (inactive) in test [18]. For the same molecule, in [19], the GI50 is 19.8 µM (inactive).
For `Clc1ccc(/C=C/c2nc3ccccc3s2)cc1Cl`, the GI50 is 54.1 µM (inactive) in test [1]; 1.73 µM (inactive) in [2]; 15.6 µM (inactive) in test [3]; over 100 µM in [4]; > 100 µM (inactive) in [5]; 22.9 µM (inactive) in test [6]. For the same molecule, the GI50 in test [7] was 1.69 µM (inactive); in [8] it was 80.7 µM (inactive); in test [9], > 100 µM (inactive); in test [10], 16.9 µM (inactive); in [11], 28.1 µM (inactive); in test [12], > 10 µM (inactive). Also, the GI50 is 18.9 µM (inactive) in test [13]; 19.5 µM (inactive) in [14]; 30.1 µM (inactive) in test [15]; 48.2 µM (inactive) in test [16]; 94 µM (inactive) in [17]; > 100 µM (inactive) in [18]. In [19], the GI50 is 1.42 µM (inactive).
With `NNC(=O)c1cc(Cl)ccc1NC(=O)C12CC3CC(CC(C3)C1)C2`, the GI50 is 33.6 µM (inactive) in test [1]; 39.6 µM (inactive) in test [2]; 21.8 µM (inactive) in test [3]; 27.8 µM in [4]; 45.6 µM (inactive) in test [6]; 35.3 µM (inactive) in test [7]. In addition, the GI50 is 15.6 µM (inactive) in test [8]; 29.3 µM (inactive) in test [9]; 30.8 µM (inactive) in test [10]; 39.5 µM (inactive) in [11]; 37.8 µM (inactive) in test [12]; 26.3 µM (inactive) in test [13]. For the same molecule, the GI50 in test [14] was 25.2 µM (inactive); in test [15], 37.4 µM (inactive); in test [16], 23.6 µM (inactive); in [17], 37.6 µM (inactive); in test [18], 29.3 µM (inactive); in test [19] it was 32 µM (inactive).
Take `C/C=C/C=C/c1nc(C#N)c(N)o1`: the GI50 in test [1] was > 100 µM (inactive); in [2], > 100 µM (inactive); in [3] it was > 100 µM (inactive); in [4], over 100 µM; in [5], 7.08 µM (inactive); in test [6] it was > 100 µM (inactive). Moreover, the GI50 in test [7] was 36.6 µM (inactive); in test [8], > 100 µM (inactive); in test [9], > 100 µM (inactive); in test [10] it was > 100 µM (inactive); in [11], > 100 µM (inactive); in test [12], > 100 µM (inactive). The GI50 in test [13], in test [14], in [15], in test [16], in test [17] and in [18] was > 100 µM (inactive) each time. Further, in [19], the GI50 was > 100 µM (inactive).
On to `O=C1C=C(Br)c2c(Br)sc(Br)c21`, for which the GI50 is 4.83 µM (inactive) in test [1]; 3.13 µM (inactive) in test [2]; 18 µM (inactive) in test [3]; 5.61 µM in test [4]; 1.59 µM (inactive) in test [5]; 24.9 µM (inactive) in test [6]. Further, the GI50 in [7] is 10.9 µM (inactive); in test [8] it was 19.1 µM (inactive); in test [9] it was 1.89 µM (inactive); in test [10] it was 5.35 µM (inactive); in [11], 31.6 µM (inactive); in [12], 20.7 µM (inactive). Moreover, the GI50 in test [13] was 3 µM (inactive); in [14], 6.05 µM (inactive); in test [15], 6.76 µM (inactive); in [16] it was 18.6 µM (inactive); in test [17], 10.6 µM (inactive); in test [18], 10 µM (inactive). The GI50 in [19] was 2.37 µM (inactive).
On to `Nn1c(Cc2ccc([N+](=O)[O-])cc2)n[nH]c1=O`, for which the GI50 in test [1] was > 100 µM (inactive); in test [2], > 100 µM (inactive); in [3] it was > 100 µM (inactive); in test [4] it was over 100 µM; in test [5], > 100 µM (inactive); in [6], > 100 µM (inactive). Further, the GI50 in [7], in test [8], in test [9], in test [10], in test [11] and in [12] was > 100 µM (inactive) throughout. Moreover, the GI50 in test [13], in [14], in [15], in test [16], in [17] and in test [18] was > 100 µM (inactive) each time. Besides, in [19], the GI50 is > 100 µM (inactive).
Regarding `O=C(/C=C(\N=P(c1ccccc1)(c1ccccc1)c1ccccc1)C(F)(F)C(F)(F)C(F)(F)C(F)(F)C(F)(F)C(F)(F)C(F)(F)F)c1ccccc1`, the GI50 in [1] is > 100 µM (inactive); in [2], > 100 µM (inactive); in [3] it was > 100 µM (inactive); in test [4], over 100 µM; in test [5], > 100 µM (inactive); in test [6], > 100 µM (inactive). Further, the GI50 in test [7], in test [8], in test [9], in test [10], in test [11] and in [12] was > 100 µM (inactive) each time. Moreover, the GI50 in test [13], in test [14], in [15], in test [16], in [17] and in test [18] was > 100 µM (inactive) in each case. The GI50 in test [19] was > 100 µM (inactive).
Take `Cc1cc(-c2nc3cccc(O)c3s2)ccc1N`: the GI50 in [1] was 24.2 µM (inactive); in [2] it was 46.9 µM (inactive); in test [4] it was 35 µM; in [5], 25.8 µM (inactive); in test [6], 27 µM (inactive); in test [7], 27.7 µM (inactive). In addition, the GI50 in test [9] was 37.2 µM (inactive); in test [10] it was 22.2 µM (inactive); in test [11] it was 28.8 µM (inactive); in [12], 34.7 µM (inactive); in test [13], 43.8 µM (inactive); in test [14], 27.3 µM (inactive). Moreover, the GI50 in test [15] was 18.5 µM (inactive); in [17] it was 24.6 µM (inactive); in [18], 17.4 µM (inactive); in test [19], 26.4 µM (inactive).
